Patent US6989371B1, “Bombesin analogs for treatment of cancer” (Dabur Research Foundation, priority 1996, dated 2006)
Non-standard residues stand in square brackets, D forms with d. Residues, ends and D or L forms follow the SMILES beside them. Aib = CC(C)(N)C(=O)O

Columns and labels:
Test in all cases: MTT cytotoxicity assay, 72 hours (Example 13)
Format in all cases: cell-based, human
[1] = system: MOLT-4 (leukemia)
Experimental: (§1) The cytotoxic activity of other synthesized bombesin analogs was tested on eight human tumor cell lines namely HT-29, SW620, PTC (all colon), PA-1 (ovary), A549 (lung), HBL100(breast), MOLT-4 (leukemia) and DU145 (prostate). The tumor cells were collected at exponential growth phase and resuspended in medium (1.5×10^6) cells/ml in RPMI 1640 containing 10% FBS). 150 μl of medium was added to the wells of a 96-well tissue culture plate (Nunc, Denmark) followed by 30 μl of cell suspension. The plate was left in incubator (37° C., 5% CO2 overnight. 20 μl of the peptide (10^−7×10^×10M concentration) was added to marked wells of the 96-well plate. Each concentration was plated in cells served as blanks. A total volume of 200 μl was ensured in each well and plate was left in incubator (37° C., 5% CO2). After 72 hours of incubation an MTT assay was performed and percentage cytotoxicity was calculated with respect to control cells. Following tables show the cytotoxicity achieved on various cell lines at different concentrations.

[2] = system: HT-29 (colon)
Experimental: as §1

[3] = system: DU145 (prostate)
Experimental: as §1

[4] = system: A549 (lung)
Experimental: as §1

[5] = system: PA-1 (ovary)
Experimental: as §1

[6] = system: PTC (colon)
Experimental: as §1

[7] = system: HBL100 (breast); conditions: HBL
Experimental: as §1

[8] = system: SW620 (colon)
Experimental: as §1

SMILES | Percent Cytotoxicity ([1]; MOLT4, 1 nM) | Percent Cytotoxicity ([1]; MOLT4, 10 nM) | Percent Cytotoxicity ([1]; MOLT4, 100 nM) | Percent Cytotoxicity ([2]; HT29, 10 nM) | Percent Cytotoxicity ([2]; HT29, 100 nM) | Percent Cytotoxicity ([3]; DU145, 10 nM) | Percent Cytotoxicity ([3]; DU145, 100 nM) | Percent Cytotoxicity ([4]; A549, 10 nM) | Percent Cytotoxicity ([4]; A549, 100 nM) | Percent Cytotoxicity ([5]; PA-1, 1 nM) | Percent Cytotoxicity ([5]; PA-1, 10 nM) | Percent Cytotoxicity ([5]; PA-1, 100 nM) | Percent Cytotoxicity ([5]; PA-1, 100 PM) | Percent Cytotoxicity ([6]; 1 nM) | Percent Cytotoxicity ([6]; 10 nM) | Percent Cytotoxicity ([6]; 100 nM) | Percent Cytotoxicity ([6]; 100 PM) | Percent Cytotoxicity ([7]; 1 nM) | Percent Cytotoxicity ([7]; 10 nM) | Percent Cytotoxicity ([7]; 100 nM) | other results
CC(C)C[C@H](NC(=O)[C@H](Cc1c[nH]cn1)NC(=O)C(C)(C)NC(=O)[C@@H](NC(=O)[C@H](C)NC(=O)[C@@H](Cc1c[nH]c2ccccc12)NC(=O)[C@H](CCC(N)=O)NC(=O)[C@H](N)Cc1ccccc1)C(C)C)C(N)=O [SEQ ID: 5, D-Phe-Gln-D-Trp-Ala-Val-Aib-His-Leu-NH2] (H-[dF]Q[dW]AV[Aib]HL-NH2; N-terminus assumed) | 6.4 ± 0.2% | 4.3 ± 0.6% | NIL | 44.4 ± 4.0% | 35.7 ± 2.8% | 22.0 ± 3.4% | 32.3 ± 3.8% | 22.2 ± 3.1% | 30.3 ± 4.3% | 16.0 ± 3.9% | 20.9 ± 5.3% | 8.8 ± 1.9% | 25.6 ± 6.3% | 23.0 ± 4.2% | 15.9 ± 2.4% | 20.4 ± 4.2% | 13.9 ± 2.2% | 31.6 ± 5.3% | 16.7 ± 3.6% | 19.4 ± 4.5% | Percent Cytotoxicity ([1]; MOLT4, 100 PM): 8.7 ± 0.6%; Percent Cytotoxicity ([2]; HT29, 1 nM): 27.9 ± 2.9%; Percent Cytotoxicity ([2]; HT29, 100 PM): 42.0 ± 2.0%; Percent Cytotoxicity ([3]; DU145, 1 nM): 10.6 ± 0.9%; Percent Cytotoxicity ([3]; DU145, 100 PM): 29.3 ± 2.9%; Percent Cytotoxicity ([4]; A549, 1 nM): 20.2 ± 4.2%; Percent Cytotoxicity ([4]; A549, 100 PM): 25.2 ± 5.6%; Percent Cytotoxicity ([7]; 100 PM): 19.3 ± 2.7%; Percent Cytotoxicity ([8]; SW620, 1 nM): 29.7 ± 4.2%; Percent Cytotoxicity ([8]; SW620, 10 nM): 30.1 ± 4.0%; Percent Cytotoxicity ([8]; SW620, 100 nM): 25.6 ± 4.2%; Percent Cytotoxicity ([8]; SW620, 100 PM): 38.0 ± 3.8%
CC(C)C[C@H](NC(=O)[C@H](Cc1c[nH]cn1)NC(=O)CNC(=O)[C@@H](NC(=O)C(C)(C)NC(=O)[C@H](Cc1c[nH]c2ccccc12)NC(=O)[C@H](CCC(N)=O)NC(=O)[C@H](N)Cc1ccccc1)C(C)C)C(N)=O [SEQ ID: 4, D-Phe-Gln-Trp-Aib-Val-Gly-His-Leu-NH2] (H-[dF]QW[Aib]VGHL-NH2; N-terminus assumed) | 19.3 ± 1.8% | 28.7 ± 4.2% | 16.2 ± 0.6% | 38.9 ± 7.3% | 38.6 ± 5.3% | 23.4 ± 3.3% | 24.9 ± 3.2% | 20.6 ± 1.9% | 20.0 ± 2.2% | 16.2 ± 2.9% | 4.3 ± 0.2% | 2.3 ± 2.9% | 12.6 ± 2.9% | 8.7 ± 1.5% | 2.1 ± 0.2% | 9.8 ± 1.7% | 14.9 ± 1.1% | 30.6 ± 4.2% | 33.2 ± 5.2% | 25.0 ± 3.1% | Percent Cytotoxicity ([1]; MOLT4, 100 PM): 28.5 ± 4.8%; Percent Cytotoxicity ([2]; HT29, 1 nM): 39.6 ± 4.3%; Percent Cytotoxicity ([2]; HT29, 100 PM): 43.3 ± 4.4%; Percent Cytotoxicity ([3]; DU145, 1 nM): 22.8 ± 4.1%; Percent Cytotoxicity ([3]; DU145, 100 PM): 23.2 ± 3.7%; Percent Cytotoxicity ([4]; A549, 1 nM): 22.7 ± 2.9%; Percent Cytotoxicity ([4]; A549, 100 PM): 20.7 ± 4.2%; Percent Cytotoxicity ([7]; 100 PM): 33.0 ± 3.6%; Percent Cytotoxicity ([8]; SW620, 1 nM): 27.8 ± 2.8%; Percent Cytotoxicity ([8]; SW620, 10 nM): 23.2 ± 2.0%; Percent Cytotoxicity ([8]; SW620, 100 nM): 34.3 ± 4.2%; Percent Cytotoxicity ([8]; SW620, 100 PM): 30.4 ± 3.2%
CC[C@H](C)[C@H](NC(=O)[C@H](Cc1c[nH]cn1)NC(=O)C(C)(C)NC(=O)[C@@H](NC(=O)[C@H](C)NC(=O)[C@H](Cc1c[nH]c2ccccc12)NC(=O)[C@H](CCC(N)=O)NC(=O)[C@H](N)Cc1ccccc1)C(C)C)C(N)=O [SEQ ID: 7, D-Phe-Gln-Trp-Ala-Val-Aib-His-Ile-NH2] (H-[dF]QWAV[Aib]HI-NH2; N-terminus assumed) | NIL | NIL | 13.1 ± 0.3% | 28.2 ± 2.8% | 15.5 ± 1.9% | NIL | NIL | 17.9 ± 0.9% | 6.7 ± 2.0% | 25.6 ± 2.9% | 22.7 ± 3.4% | 9.6 ± 4.1% | 24.5 ± 4.2% | 12.4 ± 2.1% | 7.6 ± 0.7% | 9.3 ± 1.8% | 8.2 ± 0.9% | 12.0 ± 0.7% | 7.0 ± 0.7% | 16.1 ± 3.9% | Percent Cytotoxicity ([7]; 100 PM): 4.0 ± 0.6%; Percent Cytotoxicity ([8]; SW620, 1 nM): 32.0 ± 5.8%; Percent Cytotoxicity ([8]; SW620, 10 nM): 20.8 ± 1.9%; Percent Cytotoxicity ([8]; SW620, 100 nM): 25.4 ± 2.9%; Percent Cytotoxicity ([8]; SW620, 100 PM): 33.6 ± 5.8%
